Measured values: a melting point compilation (Tetko et al.)

| Compound | melting point [°C] |
| --- | --- |
| Nc1ccc(Sc2nc3ccccc3[nH]2)cc1 | 224 to 226 |
| COc1ccc(COCc2cccc(N)c2)cc1 | 55 to 57 |
| O=c1[nH]nc2cncc(Cl)n12 | 169 to 171 |
| Nc1nc(-c2ccc3c(c2)CCO3)cs1 | 173 to 175 |
| NCc1ccc(-c2nc3ccccc3s2)o1 | 124 to 126 |
| O=Cc1cnn2cccnc12 | 149 to 151 |
| Cc1noc(C)c1C(C)CC(=O)O (stereo unspecified) | 95 to 97 |
| NS(=O)(=O)c1cccnc1Cl | 183 to 185 |
| COc1cc(Br)cc([N+](=O)[O-])c1 | 86 to 88 |
| Cc1cc(S(N)(=O)=O)ccc1[N+](=O)[O-] | 131 to 133 |
| NNc1nccnc1Cl | 153 to 155 |
| Cc1cc(/C=C(\C#N)C(=O)O)c(C)n1CCC(C)C | 229 to 231 |
| Nc1nn2cc(-c3ccccc3)nc2s1 | 183 to 185 |
| Nc1ncc(Br)cc1S(=O)(=O)Cl | 129 to 131 |
| CN(C)S(=O)(=O)c1ccc(Cl)c([N+](=O)[O-])c1 | 104 to 106 |
| CC(=O)c1cc2c(cc1O)OCO2 | 114 to 116 |
| Clc1ccc(CNC2=NCCS2)cc1 | 106 to 108 |
| COc1cccc(Cn2c(N)cc(=O)[nH]c2=O)c1 | 292 to 294 |
| NC(=O)Cn1cc(N)cn1 | 159 to 161 |
| Cc1c(C(=O)O)sc2nc3n(c(=O)c12)CCC3 | 281 to 283 |
| CN(C1CCCCC1)S(=O)(=O)c1ccccc1N | 98 to 101 |
| Cc1nnc(S)n1C1CC1 | 132 to 134 |
| COCCNC(=S)NN | 85 to 87 |
| N#Cc1cc2c([nH]c1=O)CCN(CCc1ccccc1)C2 | 219 to 221 |
| CCOc1ccc(OCC2CO2)cc1 (stereo unspecified) | 53 to 55 |

| Compound | melting point [°C] |
| --- | --- |
| NS(=O)(=O)NCC1CCCNC1 (stereo unspecified) | 132 to 134 |
| Clc1ccnc2ccc(Br)cc12 | 111 to 113 |
| N#Cc1cccc(-n2ccnc2)c1 | 161 to 163 |
| Cc1cc(-n2nccc2N)ncn1 | 59 to 61 |
| [N-]=[N+]=NC1(c2ccc(F)cc2)CCOCC1 | 63 to 65 |
| ClCc1cn(-c2ccccc2)nc1-c1ccccc1 | 87 to 89 |
| CN(C)c1ccc(N)cc1Cl | 72 to 73 |
| NNC(=O)c1cnccn1 | 170 to 172 |
| O=C(CN1CCNCC1)NC1CC1 | 22 to 24 |
| CC(=O)c1c(O)cc(C)oc1=O | 109 to 111 |
| OCc1nnc(S)n1C1CC1 | 154 to 156 |
| CCc1noc(-c2ccc(N)c(Cl)c2)n1 | 89 to 91 |
| CCC(NC(N)=O)C(=O)O (stereo unspecified) | 174 to 176 |
| Nc1ccccc1-c1ncc[nH]1 | 132 to 134 |
| O=c1ccc(S(=O)(=O)N2CCCCC2)c[nH]1 | 239 to 241 |
| Cc1cc(C=O)c(C)n1-c1cccc([N+](=O)[O-])c1 | 149 to 151 |
| CC(=O)c1c(C)oc2nc(Br)nn12 | 118 to 120 |
| OC1CCc2c(OCc3ccccc3)cccc21 (stereo unspecified) | 86 to 88 |
| Nc1cc(C(F)(F)F)no1 | 52 to 54 |
| O=C(O)C1CC1C1CCCCC1 (stereo unspecified) | 52 to 54 |
| Sc1ncn(-c2ccccc2)n1 | 173 to 175 |
| Fc1cc2nc[nH]c2cc1F | 159 to 161 |
| OC(CC1COCCN1)c1cccs1 (stereo unspecified) | 109 to 111 |
| COc1c(N)cc(C(C)(C)C)cc1C(C)(C)C | 79 to 81 |
| CCOc1cc2c(cc1/C=C/C(=O)O)OC(C)C2 (stereo unspecified) | 169 to 171 |

| Compound | melting point [°C] |
| --- | --- |
| NS(=O)(=O)c1cnn(-c2cccc(C(F)(F)F)c2)c1 | 162 to 164 |
| C=CCN=c1nn[nH]n1C | 66 to 68 |
| CC(C)C[C@H](NC(=O)OC(C)(C)C)C(=O)O | 87 to 89 |
| CC(N)c1nn[nH]n1 (stereo unspecified) | 263 to 265 |
| c1ccc2c(c1)C1CCC2N1 | 92 to 94 |
| Cc1ccc(-c2cc(CBr)on2)cc1 | 86 to 88 |
| CC(C)(C)OC(=O)N1CC=C(n2c(=O)[nH]c3ccccc32)CC1 | 201 to 203 |
| Cn1cc(N2CCC(Br)C2=O)cn1 (stereo unspecified) | 136 to 138 |
| Nc1ccc(S(=O)C(F)F)cc1 (stereo unspecified) | 83 to 85 |
| Nc1cnn(Cc2ccc(Cl)cc2)c1 | 49 to 51 |
| O=[N+]([O-])c1cc([N+](=O)[O-])c(Br)cc1F | 92 to 94 |
| N#Cc1ccnc(-n2cccn2)c1 | 96 to 98 |
| CSc1ccnc(C#N)c1 | 66 to 68 |
| CC1=NOC(=O)C1CC(=O)O (stereo unspecified) | 149 to 151 |
| CCc1ccc2c(CCl)cc(=O)oc2c1 | 138 to 140 |
| O=[N+]([O-])c1ccc2[nH]c(-c3cscn3)nc2c1 | 257 to 259 |
| CC(=O)N(C)c1nc(CCl)cs1 | 139 to 141 |
| Nc1cccc(OCCc2ccccc2)c1 | 139 to 141 |
| NS(=O)(=O)c1cc([N+](=O)[O-])cs1 | 165 to 167 |
| CS(=O)(=O)N1CCC(N=C=O)CC1 | 84 to 86 |
| c1cc2c(cn1)ncn2C1CC1 | 53 to 55 |
| Cc1nc(-c2ccc(N)cc2)cc(=O)[nH]1 | 259 to 261 |
| O=[N+]([O-])c1ccc(Cl)cc1S(=O)(=O)Cl | 67 to 69 |
| CC(C)(C)CS(N)(=O)=O | 119 to 121 |
| O=C(O)CCn1nnnc1S | 156 to 158 |

Second part, the compound after the results:

| melting point [°C] | Compound |
| --- | --- |
| 72 to 74 | CC(=O)c1cc(Cl)cc(CCl)c1O |
| 127 to 129 | CN1CCc2ccc(N)cc2C1=O |
| 197 to 199 | O=C(O)CC(O)c1ccc(Cl)cc1 (stereo unspecified) |
| 65 to 67 | CN(C)C(=O)c1ccc(Cl)cc1N |
| 182 to 184 | Cc1cccc2c1C(=O)NCCN2 |
| 201 to 203 | O=C1CCCN1c1cccc(O)c1 |
| 129 to 131 | CC(C)c1c(C(=O)O)cnn1-c1ccccn1 |
| 250 to 252 | O=C(O)c1cccc(S(=O)(=O)Nc2ccc(Cl)cc2)c1 |
| 229 to 231 | Cn1nnc2cc(C(=O)O)cnc21 |
| 239 to 241 | O=[N+]([O-])c1cccc2ncnc(O)c12 |
| 102 to 104 | CC(=O)c1cn(-c2ccccc2)nn1 |
| 254 to 260 | NC(=O)c1cc(S(=O)(=O)N2CCCC2)ccc1O |
| 84 to 86 | O=C(CCCl)Nc1cc([N+](=O)[O-])ccc1F |
| 134 to 136 | CCC(=O)c1cnccc1N |
| 166 to 168 | CCc1cccc(CC)c1NC(=O)C(C)Cl (stereo unspecified) |
| 58 to 60 | O=Cc1cccc(OCCCC(=O)O)c1 |
| 254 to 256 | O=C(COc1ccccc1)Nc1ccc(O)cc1C(=O)O |
| 252 to 254 | Cc1cc(C)c(S(N)(=O)=O)cc1C(=O)O |
| 145 to 147 | Cc1c(N=C=S)c(=O)n(-c2ccccc2)n1C |
| 169 to 171 | Nc1nc(C(=O)Nc2ccccc2)cs1 |
| 122 to 124 | O=C(O)C1CC1c1ccc(Br)cc1 (stereo unspecified) |
| 89 to 91 | O=C1C(Br)CCN1c1cccc(Cl)c1 (stereo unspecified) |
| 219 to 221 | NS(=O)(=O)c1ccc(C(=O)O)cn1 |
| 134 to 136 | CNc1c(F)cccc1C(=O)O |

| melting point [°C] | Compound |
| --- | --- |
| 176 to 178 | O=C(O)c1ccc(Cl)c(S(=O)(=O)N2CCOCC2)c1 |
| 142 to 144 | O=C(O)CCNC(=O)c1ccc(Br)cc1 |
| 125 to 127 | COc1cc(OC)cc(N2CC(C(=O)O)CC2=O)c1 (stereo unspecified) |
| 49 to 51 | Cc1ccc(Cl)c(S(=O)(=O)Cl)c1 |
| 75 to 81 | Nc1cccc(NS(N)(=O)=O)c1 |
| 83 to 85 | CC(=O)CC(=O)Nc1cccnc1Cl |
| 63 to 65 | O=C(O)C1CC1c1ccccc1OC(F)F (stereo unspecified) |
| 267 to 269 | O=C(Nc1cc(Cl)ccc1C(=O)O)c1cccs1 |
| 148 to 150 | Cc1ccc(NC(N)=S)cc1F |
| 128 to 130 | NNC(=O)c1ccoc1 |
| 185 to 187 | O=C(O)c1cccc(N2NC(=O)C3CC=CCC3C2=O)c1 (stereo unspecified) |
| 79 to 81 | Cc1cnn(-c2ccccc2)c1N |
| 124 to 126 | Sc1nnc(Cc2ccccc2)o1 |
| 173 to 175 | CCCn1c(=O)n(CC(=O)O)c2ccccc21 |
| 220 to 222 | O=C(O)CCNC(=O)c1cccs1 |
| 184 to 186 | O=C(O)c1ccc(S)cc1Cl |
| 157 to 159 | Cc1noc(C)c1COc1cccc(C(=O)O)c1 |
| 169 to 171 | O=C(O)c1ccc(SC2CCOC2=O)cc1 (stereo unspecified) |
| 243 to 245 | O=C(CCl)Nc1ccc(NC(=O)c2cccs2)cc1 |
| 211 to 213 | COc1cc(F)cc(C(=O)O)c1N |
| 199 to 201 | CC1(C)CCC(C)(C)c2cc(C(=O)O)ccc21 |
| 72 to 74 | CCC(Oc1cccc(C)c1)C(=O)O (stereo unspecified) |
| 36 to 38 | CC(Br)c1cccc2ccccc12 (stereo unspecified) |
| 94 to 96 | CC(NC(N)=S)c1ccccc1 (stereo unspecified) |

| melting point [°C] | Compound |
| --- | --- |
| 52 to 54 | COC(=O)c1cc(F)cc(I)c1N |
| 118 to 120 | CCC(C)Oc1ccc(C(=O)O)cc1 (stereo unspecified) |
| 115 to 117 | NCc1noc(-c2ccccc2)n1 |
| 199 to 201 | CN1C(=O)c2cccc(N)c2C1=O |
| 98 to 102 | O=C(O)Cc1cc(=O)n(-c2ccccc2)[nH]1 |
| 49 to 51 | CC(=O)Cc1ccc(-c2ccccc2)cc1 |
| 303 to 305 | O=C(O)c1ccc(S(=O)(=O)NC2CCS(=O)(=O)C2)cc1 (stereo unspecified) |
| 174 to 176 | Cc1nc(-c2ccsc2)ccc1C(=O)O |
| 95 to 97 | Cc1cccc(C2(C(=O)O)CCC2)c1 |
| 215 to 217 | Cc1cc(=O)c(C(=O)O)nn1-c1ccccc1Cl |
| 172 to 174 | COc1cncc(C=CC(=O)O)c1 |
| 223 to 225 | O=C(O)C1CCCN1C(=O)c1ccc2[nH]nnc2c1 (stereo unspecified) |
| 76 to 78 | COC(=O)c1ccc(OC)cc1N |
| 184 to 186 | O=C(O)CCc1ncc(-c2ccccc2Cl)o1 |
| 238 to 240 | O=C(O)c1c[nH]c2ccc(Br)cc12 |
| 105 to 107 | COC(=O)c1cc(C(=O)OC)cc(S(=O)(=O)Cl)c1 |
| 106 to 108 | CC(=O)CCc1ccc(OCC(=O)O)cc1 |
| 111 to 113 | O=C(NC1CC1)c1ccc(Br)cc1F |
| 57 to 59 | CC(C)(C)OC(=O)N1CCN(CC(O)c2ccco2)CC1 (stereo unspecified) |
| 198 to 200 | NC(=O)NC(CC(=O)O)c1ccc(Cl)cc1 (stereo unspecified) |
| 179 to 181 | CC(=O)Nc1ccccc1OCc1ccc(C(=O)O)o1 |
| 337 to 339 | Nc1nc2ccc(C(=O)O)cc2o1 |
| 147 to 149 | O=C(O)C(Oc1cccc(Cl)c1Cl)c1ccccc1 (stereo unspecified) |
